ChEMBL document CHEMBL5357025, “Perceptual Modifying Compounds and Their Potential Therapeutic Applications in Neuropsychiatric Disorders” (ACS Med Chem Lett, 2024)

Key:
[1] = Metabolic stability in pooled human liver microsomes assessed as intrinsic clearance at 1 uM preincubated with compound followed by NADPH addition and measured upto 45 mins by LC-MS/MS analysis; type: ADME, Microsome; conditions: read-out: CLH
[2] = Metabolic stability in pooled human liver microsomes assessed as half-life at 1 uM preincubated with compound followed by NADPH addition and measured upto 45 mins by LC-MS/MS analysis; type: ADME, Microsome

| Structure (SMILES) | microsomal CLint at 1 µM [1] | half-life at 1 µM [2] |
| --- | --- | --- |
| CCN(CC)C(=O)[C@@H]1C=C2c3cccc4[nH]c(Br)c(c34)C[C@H]2N(C)C1 | 56.3 µL/min/mg | 24.6 min |
| [2H]c1[nH]c2cccc3c2c1C[C@@H]1C3=C[C@@H](C(=O)N(CC)CC)CN1C | 17.8 µL/min/mg | 77.7 min |
| [2H]c1[nH]c2c([2H])c([2H])c([2H])c3c2c1C[C@@H]1C3=C[C@@H](C(=O)N(CC)CC)CN1C | 16.7 µL/min/mg | 82.8 min |
| [2H]C([2H])([2H])N1C[C@H](C(=O)N(CC)CC)C=C2c3cccc4[nH]c(Br)c(c34)C[C@H]21 | 49.4 µL/min/mg | 28.1 min |
| [2H]C([2H])([2H])C([2H])([2H])N(C(=O)[C@@H]1C=C2c3cccc4[nH]c(Br)c(c34)C[C@H]2N(C)C1)C([2H])([2H])C([2H])([2H])[2H] | 44.6 µL/min/mg | 31.1 min |
| [2H]C([2H])([2H])C([2H])([2H])N(C(=O)[C@@H]1C=C2c3cccc4[nH]cc(c34)C[C@H]2N(C)C1)C([2H])([2H])C([2H])([2H])[2H] | 17.2 µL/min/mg | 80.8 min |
| [2H]C([2H])([2H])N1C[C@H](C(=O)N(C([2H])([2H])C([2H])([2H])[2H])C([2H])([2H])C([2H])([2H])[2H])C=C2c3cccc4[nH]c(Br)c(c34)C[C@H]21 | 38.8 µL/min/mg | 35.7 min |
| [2H]c1c([2H])c2c3c(c(Br)[nH]c3c1[2H])C[C@@H]1C2=C[C@@H](C(=O)N(CC)CC)CN1C | 52.6 µL/min/mg | 26.3 min |
